The results in this text go back to paper PMC5557796, “Ligand binding modes from low resolution GPCR models and mutagenesis: chicken bitter taste receptor as a test-case” (Scientific Reports, 2017).

Assay [1] has as its target T1, ggTas2r1 (Gallus gallus, UniProt Q2AB83).
T1 construct: gene TAS2R40; full-length receptor with in-frame N-terminal sst3-tag and C-terminal hsv-tag in pcDNA5/FRT; transient in HEK 293T stably expressing chimeric Galpha16gust44
T1 sequence (Q2AB83 1-311): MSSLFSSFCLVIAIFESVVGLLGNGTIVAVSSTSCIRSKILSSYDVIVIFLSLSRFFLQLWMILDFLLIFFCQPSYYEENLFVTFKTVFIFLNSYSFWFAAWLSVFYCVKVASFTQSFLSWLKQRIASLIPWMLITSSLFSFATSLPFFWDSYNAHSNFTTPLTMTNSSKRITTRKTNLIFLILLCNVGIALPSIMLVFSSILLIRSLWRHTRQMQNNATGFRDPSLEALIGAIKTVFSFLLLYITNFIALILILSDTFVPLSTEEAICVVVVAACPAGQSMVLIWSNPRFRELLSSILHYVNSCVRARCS
The assay can be described thus: FLIPR calcium mobilization, Fluo4-AM. It is filed as cell-based. The following applies: agonist, HEK 293T with Galpha16gust44.

Assay [2] addresses T1, ggTas2r1. As to the kind of experiment: FLIPR calcium mobilization, Fluo4-AM. It is filed as cell-based. The conditions noted are these: agonist; HEK 293T with Galpha16gust44; 2.5 mM probenecid in dye loading.

For `O=C(N[C@H](CO)[C@H](O)c1ccc([N+](=O)[O-])cc1)C(Cl)Cl` [chloramphenicol], in assay [1], the “dose-response ΔF/F” value is recorded as “at high chloramphenicol concentration the maximal signal amplitude is comparable to the native receptor”. The same measure, in the same setting: in the case of `CN(C)CCC(c1ccc(Cl)cc1)c1ccccn1` (stereo not drawn) [chlorpheniramine] it was “The functional data for receptor constructs stimulated with chlorpheniramine ranges from wild-type like receptor”. In the case of `O=c1ccc2ccccc2o1` [coumarin], in assay [1], the “dose-response ΔF/F” value is reported as “The small compound coumarin is only a weak agonist for ggTas2r1”. On the same count and under the same terms, in the case of `OC(CCCN1CCCCC1)(c1ccccc1)c1ccccc1` [diphenidol] it was “variable decrease in responses compared to the wild-type ggTas2r1 upon stimulation with diphenidol”. For `C=C[C@H]1CN2CC[C@H]1C[C@@H]2[C@@H](O)c1ccnc2ccc(OC)cc12` [quinidine], the threshold concentration in assay [2] is ~ 0.3 µM. With `C=C[C@H]1CN2CC[C@H]1C[C@H]2[C@H](O)c1ccnc2ccc(OC)cc12` [quinine], the “dose-response ΔF/F” value in assay [1] (tested as quinine sulfate) was “subjected to calcium-mobilization assays using different concentrations of quinine sulfate”.
